Results from PMC10674446, “Synthesis and Structural Characterization of Novel Dimers of Dipyridothiazine as Promising Antiproliferative Agents” (Molecules, 2023).
Read-outs that look alike come from different tables or passages of the source.

What was measured:
SW480 colon cancer = test: MTT cell viability assay, SW480; format: cell-based, human; conditions: for Selectivity Index (SI), SW480: SI = IC50 L6 / IC50 SW480; for IC50: Homo sapiens, SW480, mean ± SD, n = 3, read-out: Anticancer Activity IC50, SW480
Procedure: (§1) MCF7, SW480 and normal L6 muscle cells were bought from the ATCC company, USA [34]. MCF7 and SW480 adenocarcinoma cell lines were cultured, respectively, using Dulbecco’s Modified Eagle Medium (DMEM with 4.5 g/L glucose; HIMEDIA, Mumbai, India) supplemented with 100 U/mL penicillin, 100 µg/mL of streptomycin and 10% fetal bovine serum (FBS; Cat No. FBSEU500; Tico Europe, Amstelveen, The Netherlands) under standard conditions until the desired confluency was reached. Once the desired cell confluency of 70–80% was observed, the cells were sub-cultured through trypsinization, and the cell count was calculated prior to seeding in the 96-well microplate. Similarly, L6 rat myoblasts were cultured accordingly as normal cell lines to compare against MCF7 and SW480 cell lines during the MTT cell viability assay.
(§2) Cells were seeded in a 96-well microplate at a density of 1 × 10^4 cells per well and were allowed to adhere to the wells overnight. […] The cells were exposed to the tested substances at concentrations ranging from 50, 25, 10, 5 and 1 μM. The treatment was conducted over three periods of 24 h, 48 h and 72 h, respectively. […] Lastly, the spent MTT medium was removed and DMSO was added to the wells, where the purple formazan crystals were solubilized, and the intensity of the purple hue was spectrophotometrically measured at 570 nm.
(§3) All values were represented as means ± standard deviations (n = 3). […] The IC50 values were further subjected to one-way ANOVA analysis along with the post hoc test to determine the statistical significance between the treatment groups and the negative control (untreated cells).

[1] = system: MCF7 and SW480 cancer cells; test: MTT cell viability assay, both cancer cell lines; format: cell-based, human
Procedure: as §1
(§4) Cells were seeded in a 96-well microplate at a density of 1 × 10^4 cells per well and were allowed to adhere to the wells overnight. Subsequently, the cells were treated with varying concentrations of 12 compounds (1a,b,c–4a,b,c) along with doxorubicin as the positive control. The cells were exposed to the tested substances at concentrations ranging from 50, 25, 10, 5 and 1 μM. The treatment was conducted over three periods of 24 h, 48 h and 72 h, respectively. After the treatment period, thiazolyl blue tetrazolium bromide (MTT) solution was added to each well at a concentration of 0.5 mg/mL and incubated for 3 h in a 37 °C incubator supplemented with 5% CO2. Lastly, the spent MTT medium was removed and DMSO was added to the wells, where the purple formazan crystals were solubilized, and the intensity of the purple hue was spectrophotometrically measured at 570 nm.
(§5) All values were represented as means ± standard deviations (n = 3). The data were statistically analyzed using GraphPad Prism 10.1.0, where the IC50 values of each compound treated on different cell lines at different time points were obtained by extrapolating the logarithmic dose–response curve. The IC50 values were further subjected to one-way ANOVA analysis along with the post hoc test to determine the statistical significance between the treatment groups and the negative control (untreated cells).

normal L6 rat myoblasts = test: MTT cell viability assay, normal L6 cells; format: cell-based; conditions: Rattus norvegicus, Myoblast, mean ± SD, n = 3, read-out: Anticancer Activity IC50, L6
Procedure: as §1, §4, §5

MCF7 breast cancer = test: MTT cell viability assay, MCF7; format: cell-based, human; conditions: for Selectivity Index (SI), MCF-7: SI = IC50 L6 / IC50 MCF-7; for IC50: Homo sapiens, MCF7, mean ± SD, n = 3, read-out: Anticancer Activity IC50, MCF-7
Procedure: as §1, §2, §3

[2] = 72 h treatment period, NA = IC50 beyond the tested concentration range (1-50 µM)

Row | IC50 (SW480 colon cancer; 24 h treatment period) | IC50 (SW480 colon cancer; 48 h treatment period) | IC50 (SW480 colon cancer; 72 h treatment period) | IC50 (MCF7 breast cancer; 24 h treatment period) | IC50 (MCF7 breast cancer; 48 h treatment period) | IC50 (MCF7 breast cancer; [2]) | melting point | IC50 ([1]; Homo sapiens, MCF7 and SW480, span over 24, 48 and 72 h, read-out: IC50 range towards both cancer cell lines) | SMILES | Selectivity Index (SI), SW480 (SW480 colon cancer; 24 h) | Selectivity Index (SI), SW480 (SW480 colon cancer; 48 h) | Selectivity Index (SI), SW480 (SW480 colon cancer; 72 h) | cytotoxicity towards MCF7 compared with SW480 (in words) ([1]; breast cancer cell line MCF7 versus colon cancer cell line SW480) | IC50 (normal L6 rat myoblasts; 24 h treatment period) | IC50 (normal L6 rat myoblasts; 48 h treatment period) | IC50 (normal L6 rat myoblasts; 72 h treatment period) | Selectivity Index (SI), MCF-7 (MCF7 breast cancer; 24 h) | Selectivity Index (SI), MCF-7 (MCF7 breast cancer; 48 h) | Selectivity Index (SI), MCF-7 (MCF7 breast cancer; 72 h) | toxicity towards both MCF7 and SW480 cancer cells (in words) ([1]; 24, 48 and 72 h of incubation)
1 | 17.2 ± 1.46 µM | 21.1 ± 0.99 µM | 15.9 ± 1.48 µM | 23.2 ± 0.33 µM | 10.02 ± 0.05 µM | 9.96 ± 0.03 µM | 266 to 268 °C | – | c1cc(CN2c3cnccc3Sc3cccnc32)nc(CN2c3cnccc3Sc3cccnc32)c1 [2c, 2,6-bis((dipyrido[3,2-b:3′,4′-e][1,4]thiazin-10-yl)methyl)pyridine] | 1.02 | 0.91 | 1.12 | higher cytotoxicity | 17.6 ± 0.85 µM | 19.23 ± 0.13 µM | 18 ± 0.18 µM | 0.76 | 1.91 | 1.80 | –
2 | 6.12 ± 0.21 µM | 4.16 ± 0.08 µM | 4.56 ± 1.18 µM | 4.77 ± 0.84 µM | 3.17 ± 0.13 µM | 6.1 ± 1.33 µM | 280 to 282 °C | 3.17 to 6.12 µM | c1ccc(CN2c3ccncc3Sc3ccncc32)c(CN2c3ccncc3Sc3ccncc32)c1 [3a, 1,2-bis((dipyrido[3,4-b:3′,4′-e][1,4]thiazin-10-yl)methyl)benzene] | 5.02 | 5.22 | 4.69 | – | 30.8 ± 0.47 µM | 21.7 ± 0.48 µM | 21.41 ± 0.17 µM | 6.46 | 6.85 | 3.51 | significantly toxic
